From patent US20090215678A1, “Preventing Vertical Endoparasite Infections” (BAYER HEALTHCARE AG, priority 2004, published 2009)

Experiments:
[1] = test system: Toxocara canis; experiment: Prevention of vertical (prenatal) Toxocara canis infection in pups of experimentally infected beagle bitches treated during pregnancy; assay type: in vivo; conditions: for percentage efficacy, number of excreted eggs per gram of faeces: measured in pups; for percentage efficacy, number of intestinal stages in the intestine: pups euthanised on 35th day of life
Protocol: (§1) The investigations were carried out on eighteen beagle bitches which had been experimentally infected with Toxocara canis. Six of these animals served as the untreated control group. Two different treatment schemes were used. In treatment group 1 (T1), six bitches were treated daily, from the 42nd day of pregnancy onwards until the birth of the pups, with in each case 1 mg of emodepside/kg of body weight, given orally as a tablet formulation; the six bitches in treatment group 2 (T2) were treated in the same way except that the treatment was only given every third day instead of daily. The efficacy of the treatment was assessed by determining three target quantities in the pups: number of somatic T. canis larvae in samples of the liver, lung, kidney and gastrointestinal tract including content and musculature (euthanasia of the pups directly after birth), number of excreted eggs per gram of faeces and number of intestinal T. canis stages after washing out the intestine (euthanasia of the pups on the 35th day of life).

[2] = Tolerability in dams and pups in the beagle study; assay type: in vivo; conditions: 1 mg/kg orally, T1 and T2
Protocol: as §1
Incompatibility phenomena were not observed either in the dam or in the pups.

[3] = T2: 1 mg/kg orally, every third day from 42nd day of pregnancy until birth

CC(C)C[C@H]1C(=O)O[C@H](Cc2ccc(N3CCOCC3)cc2)C(=O)N(C)[C@@H](CC(C)C)C(=O)O[C@H](C)C(=O)N(C)[C@@H](CC(C)C)C(=O)O[C@H](Cc2ccc(N3CCOCC3)cc2)C(=O)N(C)[C@@H](CC(C)C)C(=O)O[C@H](C)C(=O)N1C [emodepside]
mean value of percentage efficacy obtained from the target quantities ([1]; T1 (daily treatment)): 98.7%
percentage efficacy, number of excreted eggs per gram of faeces ([1]; T1: 1 mg emodepside/kg body weight orally as tablet, daily from 42nd day of pregnancy until birth): 99.9%
percentage efficacy, number of somatic larvae in the digestive organs ([1]; T1: 1 mg/kg orally, daily from 42nd day of pregnancy until birth, pups euthanised directly after birth): 96.4%
percentage efficacy, number of intestinal stages in the intestine ([1]; T1: 1 mg/kg orally, daily from 42nd day of pregnancy until birth): 99.9%
mean value of percentage efficacy obtained from the target quantities ([1]; T2 (treatment every third day)): 97.5%
percentage efficacy, number of excreted eggs per gram of faeces [1, 3]: 99.9%
percentage efficacy, number of somatic larvae ([1]; T2: 1 mg/kg orally, every third day from 42nd day of pregnancy until birth, pups euthanised directly after birth): 93.8%
percentage efficacy, number of intestinal stages in the intestine [1, 3]: 98.7%
prenatal infection with T. canis in the pups ([1]; both treatment schemes (T1 and T2)): marked reduction
incompatibility phenomena in the dam or in the pups [2]: not observed
